# Results: PMC6688997 (Nature Communications, 2019)
# Where “and” joins values, the source holds several entries; their conditions need not be identical. Equal values may be shown once.
# How the values were obtained:
# HIPK3 = target: T1, HIPK3 (Homo sapiens, UniProt Q9H422); assay: Kinase assay, ATP Km; type: biochemical
# T1 construct: purchased Carna Biosciences
# Erk1 = Erk1 (Homo sapiens, UniProt P27361); assay: Kinase assay, ATP Km; type: biochemical
# TSSK2 = target: T2, TSSK2 (Homo sapiens, UniProt Q96PF2); assay: Kinase assay, ATP Km; type: biochemical
# T2 construct: purchased Carna Biosciences
# PKD3 = target: T3, PKD3 (Homo sapiens, UniProt O94806); assay: Kinase assay, ATP Km; type: biochemical
# T3 construct: purchased Carna Biosciences
# DAPK1 = DAPK1 (Homo sapiens, UniProt P53355); assay: Kinase assay, ATP Km; type: biochemical
# EPHA5 = EPHA5 (Homo sapiens, UniProt P54756); assay: Kinase assay, ATP Km; type: biochemical
# CaMK2γ = CaMK2γ (Homo sapiens, UniProt Q13555); assay: Kinase assay, ATP Km; type: biochemical
# CaMK1δ = CaMK1δ (Homo sapiens, UniProt Q8IU85); assay: Kinase assay, ATP Km; type: biochemical
# CRIK = CRIK (Homo sapiens, UniProt O14578); assay: Kinase assay, ATP Km; type: biochemical
# [1] = Body weight of U-118 MG xenograft mice; type: in vivo, mouse; conditions: for Body Weight Change(%): individual animals; for Body Weight Change(%) (average / SD): N 5
# PIM2 = PIM2 (Homo sapiens, UniProt Q9P1W9); assay: Kinase assay, ATP Km; type: biochemical
# IKKα = target: T4, IKKα (Homo sapiens, UniProt O15111); assay: Kinase assay, ATP Km; type: biochemical
# T4 construct: purchased Carna Biosciences
# ROS1 = target: T5, ROS1 (Homo sapiens, UniProt P08922); assay: Kinase assay, 1 mM ATP; type: biochemical
# T5 construct: purchased Carna Biosciences, Inc. (Kobe, Japan)
# MARK1 = MARK1 (Homo sapiens, UniProt Q9P0L2); assay: Kinase assay, ATP Km; type: biochemical
# NuaK2 = NuaK2 (Homo sapiens, UniProt Q9H093); assay: Kinase assay, ATP Km; type: biochemical
# p38β = p38β (Homo sapiens, UniProt Q15759); assay: Kinase assay, ATP Km; type: biochemical
# Sequence of p38β (Q15759 whole entry): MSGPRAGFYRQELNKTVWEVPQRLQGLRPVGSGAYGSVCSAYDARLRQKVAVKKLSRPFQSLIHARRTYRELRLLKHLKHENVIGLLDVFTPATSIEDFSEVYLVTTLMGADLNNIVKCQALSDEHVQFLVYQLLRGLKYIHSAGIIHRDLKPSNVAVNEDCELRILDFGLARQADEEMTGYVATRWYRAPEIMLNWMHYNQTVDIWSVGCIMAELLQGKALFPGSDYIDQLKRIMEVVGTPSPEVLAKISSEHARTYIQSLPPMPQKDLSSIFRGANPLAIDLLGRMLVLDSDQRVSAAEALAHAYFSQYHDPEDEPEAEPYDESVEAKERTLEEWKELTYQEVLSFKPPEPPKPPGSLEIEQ
# Sequence of MARK1 (Q9P0L2 whole entry): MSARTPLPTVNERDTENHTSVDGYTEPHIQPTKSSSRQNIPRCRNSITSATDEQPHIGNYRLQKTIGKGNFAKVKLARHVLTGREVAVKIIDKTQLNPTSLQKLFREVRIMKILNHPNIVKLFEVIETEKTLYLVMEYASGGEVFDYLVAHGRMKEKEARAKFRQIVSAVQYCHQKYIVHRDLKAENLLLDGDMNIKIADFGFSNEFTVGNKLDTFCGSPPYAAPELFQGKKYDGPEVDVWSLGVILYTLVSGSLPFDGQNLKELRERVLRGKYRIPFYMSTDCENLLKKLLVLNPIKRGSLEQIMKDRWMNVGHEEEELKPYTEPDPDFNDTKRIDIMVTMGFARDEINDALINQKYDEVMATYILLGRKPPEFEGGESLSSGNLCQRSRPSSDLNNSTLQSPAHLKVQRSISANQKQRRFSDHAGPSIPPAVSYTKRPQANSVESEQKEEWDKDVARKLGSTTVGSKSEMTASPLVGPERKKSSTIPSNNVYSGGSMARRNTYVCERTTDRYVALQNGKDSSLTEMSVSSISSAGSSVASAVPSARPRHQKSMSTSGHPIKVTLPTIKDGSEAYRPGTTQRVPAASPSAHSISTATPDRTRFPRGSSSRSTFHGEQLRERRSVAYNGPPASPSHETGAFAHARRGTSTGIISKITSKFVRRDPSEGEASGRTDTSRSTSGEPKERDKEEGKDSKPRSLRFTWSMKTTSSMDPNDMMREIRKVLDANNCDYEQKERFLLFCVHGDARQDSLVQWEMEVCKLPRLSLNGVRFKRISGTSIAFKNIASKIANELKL
# T1 sequence (Q9H422 whole entry): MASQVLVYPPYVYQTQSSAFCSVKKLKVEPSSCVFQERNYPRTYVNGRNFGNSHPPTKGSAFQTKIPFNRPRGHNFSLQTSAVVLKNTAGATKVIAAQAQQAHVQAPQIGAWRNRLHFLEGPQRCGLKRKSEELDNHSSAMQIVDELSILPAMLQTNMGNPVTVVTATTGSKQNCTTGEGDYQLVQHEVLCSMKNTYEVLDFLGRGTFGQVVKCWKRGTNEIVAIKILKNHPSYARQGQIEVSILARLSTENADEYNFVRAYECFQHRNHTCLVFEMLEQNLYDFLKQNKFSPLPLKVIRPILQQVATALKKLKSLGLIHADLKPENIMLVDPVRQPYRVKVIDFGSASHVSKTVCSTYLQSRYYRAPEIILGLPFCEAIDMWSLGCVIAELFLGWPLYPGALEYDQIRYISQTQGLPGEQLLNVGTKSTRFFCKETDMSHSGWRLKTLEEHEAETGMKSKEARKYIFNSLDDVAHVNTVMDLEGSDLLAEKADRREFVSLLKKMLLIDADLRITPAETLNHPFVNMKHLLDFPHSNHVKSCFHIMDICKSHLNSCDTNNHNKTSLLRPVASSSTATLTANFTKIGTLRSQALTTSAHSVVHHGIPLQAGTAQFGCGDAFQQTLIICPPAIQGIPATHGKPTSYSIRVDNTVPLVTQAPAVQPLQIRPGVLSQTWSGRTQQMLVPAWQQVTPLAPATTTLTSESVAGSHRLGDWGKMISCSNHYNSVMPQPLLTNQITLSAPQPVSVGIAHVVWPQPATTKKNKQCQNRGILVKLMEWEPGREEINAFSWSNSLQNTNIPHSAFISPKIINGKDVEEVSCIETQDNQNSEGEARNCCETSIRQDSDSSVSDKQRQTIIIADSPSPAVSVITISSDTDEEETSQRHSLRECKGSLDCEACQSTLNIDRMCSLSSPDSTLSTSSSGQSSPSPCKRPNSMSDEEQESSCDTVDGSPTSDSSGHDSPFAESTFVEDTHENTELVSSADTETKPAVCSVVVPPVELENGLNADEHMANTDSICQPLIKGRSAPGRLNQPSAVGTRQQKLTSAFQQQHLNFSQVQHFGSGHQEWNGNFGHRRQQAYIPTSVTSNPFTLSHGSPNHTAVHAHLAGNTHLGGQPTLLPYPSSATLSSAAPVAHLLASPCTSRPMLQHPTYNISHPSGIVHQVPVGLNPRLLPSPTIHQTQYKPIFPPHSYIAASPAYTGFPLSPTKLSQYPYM
# Sequence of PIM2 (Q9P1W9 whole entry): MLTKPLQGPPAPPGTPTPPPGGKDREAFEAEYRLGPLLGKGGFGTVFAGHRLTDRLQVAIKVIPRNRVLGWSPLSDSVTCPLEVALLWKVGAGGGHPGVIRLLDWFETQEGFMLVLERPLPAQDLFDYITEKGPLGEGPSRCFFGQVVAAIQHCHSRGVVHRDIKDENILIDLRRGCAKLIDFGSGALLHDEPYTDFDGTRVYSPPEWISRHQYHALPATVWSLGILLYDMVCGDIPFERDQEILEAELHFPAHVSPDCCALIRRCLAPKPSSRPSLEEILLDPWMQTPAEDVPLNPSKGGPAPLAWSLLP
# Sequence of Erk1 (P27361 whole entry): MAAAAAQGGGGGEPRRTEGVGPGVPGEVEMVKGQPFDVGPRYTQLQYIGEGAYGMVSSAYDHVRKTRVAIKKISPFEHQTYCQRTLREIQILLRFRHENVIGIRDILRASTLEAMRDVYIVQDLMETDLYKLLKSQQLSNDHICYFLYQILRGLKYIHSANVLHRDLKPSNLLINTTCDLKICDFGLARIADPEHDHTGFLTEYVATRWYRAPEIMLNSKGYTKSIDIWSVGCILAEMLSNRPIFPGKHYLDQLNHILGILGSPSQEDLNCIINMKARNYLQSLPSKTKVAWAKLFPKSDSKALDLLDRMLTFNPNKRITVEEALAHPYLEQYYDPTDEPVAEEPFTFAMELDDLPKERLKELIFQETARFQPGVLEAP
# T3 sequence (O94806 whole entry): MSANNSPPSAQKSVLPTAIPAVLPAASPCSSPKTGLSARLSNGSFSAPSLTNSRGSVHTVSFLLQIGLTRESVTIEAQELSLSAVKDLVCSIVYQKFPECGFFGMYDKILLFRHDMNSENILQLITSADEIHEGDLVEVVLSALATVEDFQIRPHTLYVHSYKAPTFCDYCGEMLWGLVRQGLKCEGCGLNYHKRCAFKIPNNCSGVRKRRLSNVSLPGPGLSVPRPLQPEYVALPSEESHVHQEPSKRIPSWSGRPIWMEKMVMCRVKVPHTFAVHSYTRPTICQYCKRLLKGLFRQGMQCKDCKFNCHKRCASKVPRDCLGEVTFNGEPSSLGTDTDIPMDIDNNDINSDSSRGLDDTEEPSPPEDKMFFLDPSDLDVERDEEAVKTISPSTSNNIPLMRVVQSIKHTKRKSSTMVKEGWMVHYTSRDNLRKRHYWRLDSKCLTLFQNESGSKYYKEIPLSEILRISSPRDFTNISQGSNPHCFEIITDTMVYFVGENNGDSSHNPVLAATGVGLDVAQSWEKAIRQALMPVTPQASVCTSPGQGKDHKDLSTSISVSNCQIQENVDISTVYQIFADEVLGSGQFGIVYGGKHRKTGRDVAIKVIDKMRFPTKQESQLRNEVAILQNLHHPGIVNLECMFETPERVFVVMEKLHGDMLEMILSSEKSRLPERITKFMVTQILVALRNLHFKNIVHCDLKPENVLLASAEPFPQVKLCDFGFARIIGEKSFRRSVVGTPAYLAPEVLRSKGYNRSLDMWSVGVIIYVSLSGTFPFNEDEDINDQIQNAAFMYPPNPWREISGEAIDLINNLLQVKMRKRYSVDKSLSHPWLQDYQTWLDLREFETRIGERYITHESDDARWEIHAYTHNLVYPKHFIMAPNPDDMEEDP
# Sequence of EPHA5 (P54756 25-1037): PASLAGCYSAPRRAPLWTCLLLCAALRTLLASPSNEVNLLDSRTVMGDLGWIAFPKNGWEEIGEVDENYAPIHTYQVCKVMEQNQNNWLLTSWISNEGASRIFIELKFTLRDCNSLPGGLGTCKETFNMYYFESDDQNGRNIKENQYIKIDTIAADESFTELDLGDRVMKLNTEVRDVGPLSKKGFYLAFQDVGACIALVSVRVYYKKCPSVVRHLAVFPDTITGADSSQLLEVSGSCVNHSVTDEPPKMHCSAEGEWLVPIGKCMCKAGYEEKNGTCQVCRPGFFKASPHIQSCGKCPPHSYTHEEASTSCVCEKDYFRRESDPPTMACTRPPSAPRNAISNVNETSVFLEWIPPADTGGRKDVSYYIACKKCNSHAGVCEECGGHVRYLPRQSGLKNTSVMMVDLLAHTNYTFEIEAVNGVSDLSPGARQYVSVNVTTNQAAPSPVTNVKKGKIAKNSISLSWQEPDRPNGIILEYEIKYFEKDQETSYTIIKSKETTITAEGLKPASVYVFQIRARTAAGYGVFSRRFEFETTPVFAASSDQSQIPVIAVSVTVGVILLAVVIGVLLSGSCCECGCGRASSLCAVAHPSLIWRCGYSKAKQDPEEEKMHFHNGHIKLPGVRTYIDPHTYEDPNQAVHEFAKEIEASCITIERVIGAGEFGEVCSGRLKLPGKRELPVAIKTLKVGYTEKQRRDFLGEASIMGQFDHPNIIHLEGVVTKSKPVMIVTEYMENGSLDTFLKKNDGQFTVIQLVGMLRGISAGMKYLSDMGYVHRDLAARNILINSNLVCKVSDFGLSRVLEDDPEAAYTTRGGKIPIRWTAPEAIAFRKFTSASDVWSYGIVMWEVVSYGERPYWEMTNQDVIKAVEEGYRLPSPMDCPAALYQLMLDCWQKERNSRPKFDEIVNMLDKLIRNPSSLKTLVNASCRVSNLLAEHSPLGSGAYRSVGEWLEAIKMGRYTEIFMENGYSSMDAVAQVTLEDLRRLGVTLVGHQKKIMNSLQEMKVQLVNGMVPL
structure (smiles),measurement,setting,value
C[C@@H](N)COc1ccc(-c2cnc3ccc(N[C@H](C)c4cccc(F)c4)nn23)cc1.O=C(O)CCCCC(=O)O [DS-6051b],inhibition at 0.04 µM,HIPK3,0.6%
same,inhibition at 0.04 µM,Erk1,-0.174%
same,inhibition at 0.04 µM,TSSK2,0.00452%
same,inhibition at 0.04 µM,PKD3,3.7%
same,inhibition at 0.04 µM,DAPK1,6.2%
same,inhibition at 0.04 µM,EPHA5,42.3%
same,inhibition at 0.04 µM,CaMK2γ,3.7%
same,inhibition at 0.04 µM,CaMK1δ,5.1%
same,inhibition at 0.04 µM,CRIK,-9.6%
same,Body Weight Change(%),"[1]; 25 mg/kg po, day 10",0.0%
same,Body Weight Change(%),"[1]; 25 mg/kg po, day 11",-2.5% and -1.4% and -4.1% and -0.9% and 0.0%
same,Body Weight Change(%),"[1]; 25 mg/kg po, day 12",-3.5% and 0.0% and -2.7% and -1.4% and 1.9%
same,Body Weight Change(%),"[1]; 25 mg/kg po, day 13",-4.0% and -0.9% and -3.2% and 2.4%
same,Body Weight Change(%),"[1]; 25 mg/kg po, day 14",-5.1% and -2.8% and -5.0% and -0.9% and 2.4%
same,Body Weight Change(%),"[1]; 25 mg/kg po, day 15",-6.1% and -1.4% and -5.0% and 3.8%
same,Body Weight Change(%),"[1]; 25 mg/kg po, day 16",-9.1% and -0.9% and -6.3% and -2.3% and 4.3%
same,Body Weight Change(%),"[1]; 25 mg/kg po, day 17",-7.6% and 1.9% and -5.0% and -0.9% and 5.2%
same,Body Weight Change(%),"[1]; 25 mg/kg po, day 18",-7.6% and 0.5% and -4.5% and -0.9% and 5.7%
same,Body Weight Change(%),"[1]; 25 mg/kg po, day 19",-8.1% and 1.4% and -2.3% and -1.4% and 6.6%
same,Body Weight Change(%),"[1]; 25 mg/kg po, day 20",-7.6% and 0.9% and -1.8% and -2.3% and 5.2%
same,Body Weight Change(%),"[1]; 25 mg/kg po, day 21",-6.6% and 0.0% and -2.3% and -3.6% and 6.2%
same,Body Weight Change(%),"[1]; 25 mg/kg po, day 22",-6.6% and 2.4% and -2.3% and -2.7% and 4.3%
same,Body Weight Change(%),"[1]; 25 mg/kg po, day 23",-8.6% and 1.9% and -0.9% and 4.7%
same,Body Weight Change(%),"[1]; 25 mg/kg po, day 24",-4.5% and 2.8% and -2.3% and 0.9% and 5.2%
same,Body Weight Change(%),"[1]; 25 mg/kg po, day 25",-3.0% and 3.3% and -1.4% and 3.6% and 6.2%
same,Body Weight Change(%),"[1]; 25 mg/kg po, day 26",-2.5% and 6.6% and -1.4% and 3.6% and 9.5%
same,Body Weight Change(%),"[1]; 25 mg/kg po, day 27",-1.5% and 6.6% and -0.5% and 2.7% and 6.2%
same,Body Weight Change(%),"[1]; 25 mg/kg po, day 28",-0.5% and 5.2% and -0.9% and 3.2% and 7.1%
same,Body Weight Change(%) (average / SD),"[1]; 25 mg/kg, day 0",0.0%
same,Body Weight Change(%) (average / SD),"[1]; 25 mg/kg, day 1",-1.8%
same,Body Weight Change(%) (average / SD),"[1]; 25 mg/kg, day 2",-1.1%
same,Body Weight Change(%) (average / SD),"[1]; 25 mg/kg, day 3",-1.3%
same,Body Weight Change(%) (average / SD),"[1]; 25 mg/kg, day 4",-2.3%
same,Body Weight Change(%) (average / SD),"[1]; 25 mg/kg, day 5",-2.0%
same,Body Weight Change(%) (average / SD),"[1]; 25 mg/kg, day 6",-2.9%
same,Body Weight Change(%) (average / SD),"[1]; 25 mg/kg, day 7",-1.3%
same,Body Weight Change(%) (average / SD),"[1]; 25 mg/kg, day 8",-1.4%
same,Body Weight Change(%) (average / SD),"[1]; 25 mg/kg, day 9",-0.8%
same,Body Weight Change(%) (average / SD),"[1]; 25 mg/kg, day 10",-1.1%
same,Body Weight Change(%) (average / SD),"[1]; 25 mg/kg, day 11",-1.3%
same,Body Weight Change(%) (average / SD),"[1]; 25 mg/kg, day 12",-1.0%
same,Body Weight Change(%) (average / SD),"[1]; 25 mg/kg, day 13",-0.8%
same,Body Weight Change(%) (average / SD),"[1]; 25 mg/kg, day 14",0.4%
same,Body Weight Change(%) (average / SD),"[1]; 25 mg/kg, day 15",1.7%
same,Body Weight Change(%) (average / SD),"[1]; 25 mg/kg, day 16",3.2%
same,Body Weight Change(%) (average / SD),"[1]; 25 mg/kg, day 17",2.7%
same,Body Weight Change(%) (average / SD),"[1]; 25 mg/kg, day 18",2.8%
same,Body Weight Change(%),"[1]; 50 mg/kg po, day 10",0.0%
same,Body Weight Change(%),"[1]; 50 mg/kg po, day 11",1.5%
same,Body Weight Change(%),"[1]; 50 mg/kg po, day 19",1.5%
same,Body Weight Change(%),"[1]; 50 mg/kg po, day 20",2.0%
same,Body Weight Change(%),"[1]; 50 mg/kg po, day 21",2.0%
same,Body Weight Change(%),"[1]; 50 mg/kg po, day 22",1.0%
same,Body Weight Change(%),"[1]; 50 mg/kg po, day 23",2.0%
same,Body Weight Change(%),"[1]; 50 mg/kg po, day 24",1.5%
same,Body Weight Change(%),"[1]; 50 mg/kg po, day 25",0.0%
same,Body Weight Change(%),"[1]; 50 mg/kg po, day 26",3.5%
same,Body Weight Change(%),"[1]; 50 mg/kg po, day 27",3.5%
same,Body Weight Change(%),"[1]; 50 mg/kg po, day 28",4.5%
same,Body Weight Change(%) (average / SD),"[1]; 50 mg/kg, day 0",0.0%
same,Body Weight Change(%) (average / SD),"[1]; 50 mg/kg, day 1",0.4%
same,Body Weight Change(%) (average / SD),"[1]; 50 mg/kg, day 2",0.4%
same,Body Weight Change(%) (average / SD),"[1]; 50 mg/kg, day 3",1.8%
same,Body Weight Change(%) (average / SD),"[1]; 50 mg/kg, day 4",0.9%
same,Body Weight Change(%) (average / SD),"[1]; 50 mg/kg, day 5",0.9%
same,Body Weight Change(%) (average / SD),"[1]; 50 mg/kg, day 6",0.2%
same,Body Weight Change(%) (average / SD),"[1]; 50 mg/kg, day 7",2.6%
same,Body Weight Change(%) (average / SD),"[1]; 50 mg/kg, day 8",2.8%
same,Body Weight Change(%) (average / SD),"[1]; 50 mg/kg, day 9",1.2%
same,Body Weight Change(%) (average / SD),"[1]; 50 mg/kg, day 10",1.2%
same,Body Weight Change(%) (average / SD),"[1]; 50 mg/kg, day 11",0.8%
same,Body Weight Change(%) (average / SD),"[1]; 50 mg/kg, day 12",2.3%
same,Body Weight Change(%) (average / SD),"[1]; 50 mg/kg, day 13",2.9%
same,Body Weight Change(%) (average / SD),"[1]; 50 mg/kg, day 14",3.9%
same,Body Weight Change(%) (average / SD),"[1]; 50 mg/kg, day 15",3.5%
same,Body Weight Change(%) (average / SD),"[1]; 50 mg/kg, day 16",4.9%
same,Body Weight Change(%) (average / SD),"[1]; 50 mg/kg, day 17",4.4%
same,Body Weight Change(%) (average / SD),"[1]; 50 mg/kg, day 18",5.5%
same,Body Weight Change(%) (average / SD),"[1]; 100 mg/kg, day 0",0.0%
same,Body Weight Change(%) (average / SD),"[1]; 100 mg/kg, day 1",-0.7%
same,Body Weight Change(%) (average / SD),"[1]; 100 mg/kg, day 2",2.0%
same,Body Weight Change(%) (average / SD),"[1]; 100 mg/kg, day 3",2.9%
same,Body Weight Change(%) (average / SD),"[1]; 100 mg/kg, day 4",3.6%
same,Body Weight Change(%) (average / SD),"[1]; 100 mg/kg, day 5",4.8%
same,Body Weight Change(%) (average / SD),"[1]; 100 mg/kg, day 6",3.7%
same,Body Weight Change(%) (average / SD),"[1]; 100 mg/kg, day 7",7.0%
same,Body Weight Change(%) (average / SD),"[1]; 100 mg/kg, day 8",5.7%
same,Body Weight Change(%) (average / SD),"[1]; 100 mg/kg, day 9",5.0%
same,Body Weight Change(%) (average / SD),"[1]; 100 mg/kg, day 10",4.2%
same,Body Weight Change(%) (average / SD),"[1]; 100 mg/kg, day 11",4.6%
same,Body Weight Change(%) (average / SD),"[1]; 100 mg/kg, day 12",5.5%
same,Body Weight Change(%) (average / SD),"[1]; 100 mg/kg, day 13",4.1%
same,Body Weight Change(%) (average / SD),"[1]; 100 mg/kg, day 14",5.1%
same,Body Weight Change(%) (average / SD),"[1]; 100 mg/kg, day 15",7.2%
same,Body Weight Change(%) (average / SD),"[1]; 100 mg/kg, day 16",8.9%
same,Body Weight Change(%) (average / SD),"[1]; 100 mg/kg, day 17",8.0%
same,Body Weight Change(%) (average / SD),"[1]; 100 mg/kg, day 18",7.6%
same,Body Weight Change(%) (average / SD),"[1]; 200 mg/kg, day 4",0.8%
same,Body Weight Change(%) (average / SD),"[1]; 200 mg/kg, day 5",0.5%
same,Body Weight Change(%) (average / SD),"[1]; 200 mg/kg, day 6",1.7%
same,Body weight loss,[1]; ≥25 mg/kg,without significant body weight loss
same,inhibition at 0.04 µM,PIM2,-2.4%
same,inhibition at 0.04 µM,IKKα,-1.8%
same,inhibition at 0.2 µM,ROS1,101%
same,inhibition at 0.04 µM,MARK1,16.8%
same,inhibition at 0.04 µM,NuaK2,75.3%
same,inhibition at 0.04 µM,p38β,1.4%
